{"source": "patent US20050250137A1", "about": "“Molecular targets of cancer and aging” (priority 2002, published 2005)", "test_system": "LFS cells", "test": "poly (I:C) stimulation of LFS cells, STAT1α and IFNβ gene expression", "assay_type": "cell-based, human", "settings": "poly (I:C) treatment", "data": [{"substance": "poly (I:C)", "values": [{"measurement": "STAT1α and IFNβ gene expression", "setting": "MDAH041-PC", "value": "induced"}, {"measurement": "STAT1α and IFNβ gene expression", "setting": "MDAH087-1", "value": "no induction"}, {"measurement": "STAT1α and IFNβ gene expression", "setting": "MDAH087-10", "value": "no induction"}, {"measurement": "STAT1α and IFNβ gene expression", "setting": "MDAH087-N", "value": "induced"}, {"measurement": "STAT1α and IFNβ gene expression", "setting": "MDAH087-PC", "value": "induced"}, {"measurement": "STAT1α and IFNβ gene expression", "setting": "immortal MDAH041", "value": "induced"}]}]}
